The values that follow come from patent publication US11185616B2, “Implantable medical products, a process for the preparation thereof, and use thereof” (priority 2016, dated 2021).

Test [1] relates to thromboxane A2 in platelets. To be noted: Köfeler et al. 2000; cited from earlier work.
The test system of a further test is S. aureus ATCC. The experiment in a line: rifampicin resistance development, passaging experiment. It is filed as cell-based. The settings on record: parallel culture with rifampicin-MHC doping. The method, then:
(§1) 10 ml tubes with Müller-Hinton broth (MHB) was brought to a concentration of about 10^6 CPU with 0.01 ml of an overnight culture with S. epidermidis RP62A and S. aureus ATCC, and provided with the respective MHC of rifampicin and miconazole. An aliquot was taken from the overnight cultures, brought into new MHB tubes (about 10^6 CPU), and again incubated over night. This was repeated up to 50 times, and the resistant isolates were frozen.

A further test deals with S. epidermidis RP62A. Described as above. To be noted: parallel culture with rifampicin-MHC doping. It is filed as cell-based. The protocol:
as §1

Consider `Clc1ccc(COC(Cn2ccnc2)c2ccc(Cl)cc2Cl)c(Cl)c1` (stereo not shown) [Miconazole, miconazole], for which the “inhibition of synthesis of thromboxane A2 in platelets” value in test [1] is “selectively inhibit”.

Turning to `Clc1ccccc1C(c1ccccc1)(c1ccccc1)n1ccnc1` [clotrimazole], the “inhibition of synthesis of thromboxane A2 in platelets” value in test [1] was “selectively inhibit”.

As to `CO[C@H]1/C=C/O[C@@]2(C)Oc3c(C)c(O)c4c(O)c(c(/C=N/N5CCN(C)CC5)c(O)c4c3C2=O)NC(=O)/C(C)=C\C=C\[C@H](C)[C@H](O)[C@@H](C)[C@@H](O)[C@@H](C)[C@H](OC(C)=O)[C@@H]1C` [rifampicin], the resistance frequencies in the test on S. aureus ATCC and in the test on S. epidermidis RP62A was 10^−6 in each case.
